In US20120329770A1, “CEPHALOSPORIN DERIVATIVES USEFUL AS BETA-LACTAMASE INHIBITORS AND COMPOSITIONS AND METHODS OF USE THEREOF” (priority 2010, published 2012):

Tests used:
[1] = target: T1, class A β-lactamase KPC-2 (Klebsiella pneumoniae, UniProt Q9F663); experiment: Inhibition of β-lactamases, nitrocefin hydrolysis; type: biochemical; conditions: nitrocefin 100 μM, 10 min pre-incubation
T1 construct: calculated for a mature protein with a 24 amino acid signal peptide removed; made in house; host or cells: Escherichia coli DH5α (pBR322-catI-blaKPC-2)
T1 sequence (Q9F663 25-293, looked up): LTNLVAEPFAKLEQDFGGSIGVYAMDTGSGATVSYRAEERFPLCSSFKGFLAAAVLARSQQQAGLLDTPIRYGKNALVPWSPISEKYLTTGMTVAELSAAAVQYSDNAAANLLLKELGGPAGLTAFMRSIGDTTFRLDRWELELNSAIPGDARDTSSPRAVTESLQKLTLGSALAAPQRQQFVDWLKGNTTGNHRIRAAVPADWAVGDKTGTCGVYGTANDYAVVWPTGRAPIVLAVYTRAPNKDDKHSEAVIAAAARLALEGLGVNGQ
Protocol: The KPC-2 β-lactamase was purified from Escherichia coli DH5α strain containing the plasmid, pBR322-catI-blaKPC-2, which was kindly provided by Prof. F. van den Akker (Case Western Reserve University). Expression and purification of the enzyme was similar to that reported by Ke et al. (Biochemistry 2007, 46, 5732-5740). A molecular weight of 28,472 Da for the purified KPC-2 was determined by ESI MS. This is in close agreement with that calculated for a mature protein with a 24 amino acid signal peptide removed.
(§1) Assay conditions for IC50 determinations involved enzyme concentrations ranging between 2 and 6 nM. The concentration used for the nitrocefin substrate was 100 μM. Assays with OXA-10 and OXA-45 were conducted at pH 7.0 with 100 mM sodium phosphate buffer containing 25 mM sodium bicarbonate. Assays with KPC-2 and GC1 were performed at pH 7.0 in 50 mM HEPES buffer and assays with IMP-1 and VIM-2 were performed in the same buffer with the addition of 500 mM NaCl and 1 μM ZnSO4. BSA was used with all enzymes (except OXA-10 and KPC-2) at concentrations of 0.5-1.0 μg/mL.
(§2) Inhibitors were pre-incubated for 10 minutes at room temperature with enzyme assay solutions prior to the addition of the nitrocefin. […] Enzymatic activity was determined using the initial rate of increase in absorbance at 482 nm

[2] = target: T2, IMP-1 metallo-β-lactamase (Serratia marcescens, UniProt P52699); experiment: Inhibition of β-lactamases, nitrocefin hydrolysis; type: biochemical; conditions: nitrocefin 100 μM, 10 min pre-incubation; read-out: IC50 IMP-1 (Class B)
T2 construct: made in house; host or cells: Escherichia coli BL21(DE3) carrying pCIP4
T2 sequence (P52699 19-246, looked up): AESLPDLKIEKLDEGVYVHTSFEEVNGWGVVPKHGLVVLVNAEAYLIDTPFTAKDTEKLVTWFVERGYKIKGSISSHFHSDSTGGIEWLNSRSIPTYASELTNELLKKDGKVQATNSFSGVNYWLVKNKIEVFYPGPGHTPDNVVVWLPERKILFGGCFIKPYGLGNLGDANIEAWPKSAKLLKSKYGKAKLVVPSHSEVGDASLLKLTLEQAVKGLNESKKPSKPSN
Excerpt: IMP-1 metallo-β-lactamase was expressed in Esherichia coli BL21(DE3) carrying pCIP4 and purified as reported by Laraki et al. (Antimicrob. Agents Chemother. 1999, 43, 902-906). The homogeneity of the protein was confirmed by SDS-PAGE according to the method of Laemmli (Nature 1970, 227, 680-685). The molecular weight of purified IMP-1, Mr=25,112±0.5 Da, as determined by ESI-MS, was in agreement with that deduced from its amino acid sequence (Laraki et al. Antimicrob. Agents Chemother. 1999, 43, 890-901).
as §1
Inhibitors were pre-incubated for 10 minutes at room temperature with enzyme assay solutions prior to the addition of the nitrocefin. These compounds were dissolved in DMSO and prepared at various concentrations such that the final concentration of DMSO was 1% during the pre-incubation. The reaction was initiated by the addition of the pre-incubated enzyme-cyclobutanone solution (90 μL) to a solution of nitrocefin in buffer (10 μL). Enzymatic activity was determined using the initial rate of increase in absorbance at 482 nm

[3] = target: T3, VIM-2 metallo-β-lactamase (Pseudomonas aeruginosa, UniProt Q9K2N0); experiment: Inhibition of β-lactamases, nitrocefin hydrolysis; type: biochemical; conditions: nitrocefin 100 μM, 10 min pre-incubation; read-out: IC50 VIM-2 (Class B)
T3 construct: made in house; host or cells: Escherichia coli BL21 (DE3) pLysS carrying pNOR2001
Protocol: VIM-2 metallo-β-lactamase was expressed in Escherichia coli BL21 (DE3) pLysS carrying pNOR2001 (a generous gift from P. Nordmann, Université Paris XI, France) and purified as reported by Poirel et al. (Antimicrob. Agents Chemother. 2000, 44, 891-897). The homogeneity and molecular weight of the mature VIM-2 (29.7 kDa) was determined by SDS-PAGE (Laemmli, U. K. Nature 1970, 227, 680-685). Enzyme concentration was determined from the absorbance at 280 nm (εEM=32,000 M^−1 cm^−1).
as §1, §2

[4] = target: class B β-lactamase NDM-1 (Klebsiella pneumoniae, UniProt C7C422); experiment: Inhibition of β-lactamases, nitrocefin hydrolysis; type: biochemical; conditions: 15 μM nitrocefin
Chain of class B β-lactamase NDM-1 (C7C422 29-270, looked up): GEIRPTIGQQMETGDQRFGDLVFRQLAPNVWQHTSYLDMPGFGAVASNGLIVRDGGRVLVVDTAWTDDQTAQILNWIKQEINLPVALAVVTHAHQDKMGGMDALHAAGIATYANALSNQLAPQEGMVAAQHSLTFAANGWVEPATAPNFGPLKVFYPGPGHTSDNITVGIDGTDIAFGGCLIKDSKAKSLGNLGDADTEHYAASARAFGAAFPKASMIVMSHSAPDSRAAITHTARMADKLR

class C β-lactamase GC1 = target: T4, class C β-lactamase GC1 (Enterobacter cloacae, UniProt Q59401); experiment: Inhibition of β-lactamases, nitrocefin hydrolysis; type: biochemical; conditions: nitrocefin 100 μM, 10 min pre-incubation
T4 construct: made in house; host or cells: Escherichia coli AS226-51 harbouring pCS100
T4 sequence (Q59401 entry or part of it): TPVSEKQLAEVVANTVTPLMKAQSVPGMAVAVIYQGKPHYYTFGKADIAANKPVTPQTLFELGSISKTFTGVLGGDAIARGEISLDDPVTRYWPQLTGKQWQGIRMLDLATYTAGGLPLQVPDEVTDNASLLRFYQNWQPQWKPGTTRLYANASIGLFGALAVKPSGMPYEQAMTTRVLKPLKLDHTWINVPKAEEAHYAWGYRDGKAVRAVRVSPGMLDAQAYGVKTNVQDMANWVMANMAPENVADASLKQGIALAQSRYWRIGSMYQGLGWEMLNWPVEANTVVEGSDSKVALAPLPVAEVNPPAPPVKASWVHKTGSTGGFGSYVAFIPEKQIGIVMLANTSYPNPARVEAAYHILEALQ
Protocol: GC1 β-lactamase was purified from Escherichia coli AS226-51 harbouring pCS100, which was a generous gift from Prof. M. Nukaga (Josai International University, Japan). The cell culture was harvested and subjected to a stringent periplasmic lysis protocol according to Crichlow et al. (Biochemistry 1999, 38, 10256-10261.). Purification proceeded similarly to Nukaga et al. (J. Biol. Chem. 2004, 279, 9344-9352.) with cation exchange chromatography (CM Sephadex C-50) equilibrated with 10 mM sodium phosphate buffer (pH 6), followed by elution with a stepwise gradient of increasing NaCl concentration. Fractions containing β-lactamase activity were then applied to a phenylboronate column (MoBiTec, Germany), equilibrated with 20 mM triethanolamine.HCl, pH 7.0, 0.5 M NaCl. The column was washed with the same buffer and then eluted with sterile 0.5 M borate buffer, pH 7.0, 0.5 M NaCl. Active fractions eluted from the phenylboronate column were analyzed for purity via SDS-PAGE, pooled, and concentrated before buffer exchange to 100 mM sodium phosphate, pH 7.0.
(§3) Assay conditions for IC50 determinations involved enzyme concentrations ranging between 2 and 6 nM. […]
as §2

[5] = target: T5, class D β-lactamase OXA-10 (Pseudomonas aeruginosa, UniProt P14489); experiment: Inhibition of β-lactamases, nitrocefin hydrolysis; type: biochemical
T5 construct: indicating a post-translational deletion of a 20 amino acid signal peptide; made in house; host or cells: Escherichia coli BL21 (DE3), pET24a-blaOXA-10, purified from culture supernatant
T5 sequence (P14489 20-266): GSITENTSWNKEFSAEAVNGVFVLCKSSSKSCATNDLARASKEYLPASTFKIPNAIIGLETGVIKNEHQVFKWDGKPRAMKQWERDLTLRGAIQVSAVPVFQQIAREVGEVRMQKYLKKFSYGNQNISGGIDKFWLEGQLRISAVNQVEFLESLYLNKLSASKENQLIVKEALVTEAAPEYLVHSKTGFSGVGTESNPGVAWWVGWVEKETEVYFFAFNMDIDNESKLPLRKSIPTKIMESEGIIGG
Excerpt: OXA-10 β-lactamase was expressed and purified using a modified protocol of that reported by Golemi et al. (J. Am. Chem. Soc. 2000, 122, 6132-6133). The pET24a plasmid with the blaOXA-10 gene insert, a kind gift from Prof. S. Mobashery (Notre Dame University), was transformed into Escherichia coli BL21 (DE3) and induced with IPTG. Purification of the enzyme was achieved by the addition of ammonium sulfate to the induced culture supernatant. The protein precipitate collected (50-70% ammonium sulfate saturation) was dissolved and dialyzed against 10 mM Tris.SO4 buffer, pH 7.5, and further purified with a DE52 cellulose column (Whatman, UK) equilibrated with the same buffer. The material bound to the column was washed with 10 mM Tris.SO4 buffer, pH 7.5, followed by an elution with a K2SO4 gradient (0-100 mM). Protein fractions containing nitrocefin-hydrolyzing activity were concentrated and purity analyzed by SDS-PAGE. A molecular weight of 27,490 Da for OXA-10 was determined by ESI MS, indicating a post-translational deletion of a 20 amino acid signal peptide.
as §3, §2

IMP-1 = target: T6, IMP-1 (Serratia marcescens, UniProt P52699); experiment: Inhibition of IMP-1-catalyzed hydrolysis of meropenem in vitro (310 nm); type: biochemical
T6 construct: made in house; host or cells: Escherichia coli BL21(DE3) carrying pCIP4
T6 sequence (P52699 19-246 limits assumed): as the sequence (P52699 19-246, looked up) above

MBL CfiA = MBL CfiA (Aeromonas hydrophila, UniProt P26918); conditions: cited from earlier work
Chain of MBL CfiA (P26918 28-254): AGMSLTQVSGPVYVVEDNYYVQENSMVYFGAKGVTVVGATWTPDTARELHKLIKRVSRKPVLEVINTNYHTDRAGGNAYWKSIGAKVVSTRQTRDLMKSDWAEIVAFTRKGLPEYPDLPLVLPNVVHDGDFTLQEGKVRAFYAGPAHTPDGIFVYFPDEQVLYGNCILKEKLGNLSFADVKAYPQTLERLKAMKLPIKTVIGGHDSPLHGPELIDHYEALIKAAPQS

O=C(Cc1ccc(F)cc1)N[C@@H]1C(=O)N2C(C(=O)O)=C(CSC(=O)c3ccccc3)CS[C@H]12 [drawing 28]
IC50 [1]: 104 µM
IC50 [2]: 8.2 µM
IC50 [3]: 4.2 µM
IC50 [4]: 40 µM
IC50 (class C β-lactamase GC1): 11 µM
IC50 [5]: 6.3 µM

CO[C@@]1(NC(=O)C(C(=O)O)c2ccc(O)cc2)C(=O)N2C(C(=O)O)=C(CSc3nnnn3C)CO[C@@H]21 (stereo partly drawn) [moxalactam]
performance as inhibitor (IMP-1): poor performance
protection of meropenem from IMP-1-catalyzed hydrolysis in vitro (IMP-1; IMP-1 12 nM, meropenem 200 μM, test substance 100 μM, 310 nm): poor protection
incubation required for full inactivation of CfiA (MBL CfiA): 14 h
